According to US20070176143A1, “Stable ill-defined cubic nanosized particles in a ternary aqueous phase” (YISSYM RESEARCH DEVELOPMENT COMPANY OF THE HEBREW …, priority 2003, published 2007):

Procedure: Well ordered liquid crystals have many applications all utilizing their relative structured character and the very large surface area they posses.
2 gr of GMO were melted by heating to about 50° C. In a separate vessel, 2 gr of GMO and lycopene (0.0085 gr) were placed. The vessel was closed and its contents were mixed well with vortex until all the lycopene dissolved. 0.5 gr ethanol was added and the combination further mixed. The vessel was placed in a bath at a temperature of 45° C. 2.5 gr water were added.
2 gr of GMO were melted by heating to about 50° C. In a separate vessel, 2 gr of GMO and 0.5 gr of ethanol were placed. The vessel was closed and its contents were mixed well with vortex. The vessel was placed in a bath at 45° C.
2 gr of GMO were melted by heating to about 50° C. In a separate vessel, 2 gr of GMO and carbamazepine (0.044 gr) were placed. The vessel was closed and its contents were mixed well with vortex until all the carbamazepine dissolved. 0.5 gr ethanol was added and the combination further mixed. The vessel was placed in a bath at a temperature of 45° C. 2.5 gr water were added.
2 gr of GMO were melted by heating to about 50° C. In a separate vessel, 2 gr of GMO and phytosterol (0.2 gr) were placed. […] 0.5 gr ethanol was added and the combination further mixed. The vessel was placed in a bath at a temperature of 45° C. 2.5 gr water were added.

Row | Compound | solubilization in an aqueous phase comprising the QL semi-ordered phase
1 | NC(=O)N1c2ccccc2C=Cc2ccccc21 [carbamazapine, reference compound] | successfully solubilized
2 | CC1=C[C@H](O)CC(C)(C)[C@H]1/C=C/C(C)=C/C=C/C(C)=C/C=C/C=C(C)/C=C/C=C(C)/C=C/C1=C(C)C[C@@H](O)CC1(C)C [leutin] | successfully solubilized
3 | CC(C)=CCC/C(C)=C/C=C/C(C)=C/C=C/C(C)=C/C=C/C=C(C)/C=C/C=C(C)/C=C/C=C(\C)CCC=C(C)C [Lycopene] | successfully solubilized

Now from value to compound:

Row | solubilization in an aqueous phase comprising the QL semi-ordered phase | Compound
4 | successfully solubilized | CC1=C(/C=C/C(C)=C/C=C/C(C)=C/C=C/C=C(C)/C=C/C=C(C)/C=C/C2=C(C)CCCC2(C)C)C(C)(C)CCC1 [β-carotene]
5 | all the phytosterol dissolved | phytosterol
